Assay results: ChEMBL document CHEMBL1201862, “PubChem BioAssay data set” (2004)
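Exposure lasted 48 hours, with cells grown in 96-well plates and compounds tested at five concentrations. The concentration for 50% growth inhibition is given as GI50.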 The source made the active and inactive calls. No stated cut-off is given here; in the data, active = GI50 up to about 1.1 µM and inactive = higher.

What was measured:
Assay in all cases: NCI tumour cell line growth inhibition, 48 h
[1] = tested on: HCC 2998
[2] = tested on: SK-MEL-28
[3] = tested on: K562
[4] = tested on: 786-0
[5] = tested on: RXF 393
[6] = tested on: M14
[7] = tested on: DU-145
[8] = tested on: NCI/ADR-RES
[9] = tested on: NCI-H23
[10] = tested on: MOLT-4
[11] = tested on: SNB-75
[12] = tested on: HOP-92
[13] = tested on: UO-31
[14] = tested on: SW-620
[15] = tested on: SNB-19
[16] = tested on: TK-10
[17] = tested on: U-251
[18] = tested on: HCT-116
[19] = tested on: SK-MEL-5

Measured: GI50

Cn1c(=O)oc2cc(C(O)CN3CCN(Cc4ccc5c(c4)OCO5)CC3)ccc21 (configuration not stated)
inactive: [1] > 100 µM | [2] > 100 µM | [3] > 100 µM | [4] > 100 µM | [5] > 100 µM | [6] > 100 µM | [7] > 100 µM | [8] > 100 µM | [9] > 100 µM | [10] > 100 µM | [11] 47 µM | [12] > 100 µM | [13] > 100 µM | [14] > 100 µM | [15] > 100 µM | [16] > 100 µM | [17] > 100 µM | [18] > 100 µM

CC(C)(C)[Si](C)(C)OCC1OC(n2ccc(=O)[nH]c2=O)C(O[Si](C)(C)C(C)(C)C)[C@]12O[C@@H]2CO (some centres not stated)
inactive: [1] 20.8 µM | [2] 15.9 µM | [3] 23.3 µM | [4] 18.2 µM | [19] 14 µM | [6] 14.4 µM | [7] 19.4 µM | [8] 17.4 µM | [9] 14.1 µM | [10] 8.3 µM | [11] 18.4 µM | [12] 15 µM | [13] 8.85 µM | [14] 20.2 µM | [15] 10.3 µM | [16] 14.8 µM | [17] 15.6 µM | [18] 11.3 µM

C[Si](C)(C)C1(Sc2ccccc2)SCCCS1
inactive: [1] 31.5 µM | [2] 43.3 µM | [3] 31.1 µM | [4] 46.5 µM | [19] 72.9 µM | [5] 32.5 µM | [6] 49.8 µM | [9] 31.6 µM | [10] 15.1 µM | [11] 37.8 µM | [12] 32.8 µM | [13] 6.27 µM | [14] 53.1 µM | [15] 36.9 µM | [16] > 100 µM | [17] 38.4 µM | [18] 21.3 µM

CC#C[C@@]1(O)CCCCC1O (some centres not stated)
inactive: [1] > 100 µM | [2] > 100 µM | [3] > 100 µM | [4] > 100 µM | [19] > 100 µM | [5] > 100 µM | [6] > 100 µM | [9] > 100 µM | [10] > 100 µM | [11] 66.8 µM | [12] > 100 µM | [13] > 100 µM | [14] > 100 µM | [15] > 100 µM | [16] > 100 µM | [17] > 100 µM | [18] > 100 µM

c1ccc2c(c1)c(N1CCCCC1)cc1nc3c(cc(N4CCCCC4)c4ccccc43)nc12
inactive: [1] > 100 µM | [2] > 100 µM | [3] > 100 µM | [4] > 100 µM | [19] > 100 µM | [5] > 100 µM | [6] > 100 µM | [7] > 100 µM | [8] > 100 µM | [9] > 100 µM | [10] > 100 µM | [11] 11.9 µM | [12] > 100 µM | [13] > 100 µM | [14] > 100 µM | [15] > 100 µM | [17] > 100 µM | [18] > 100 µM

COC(=O)C(=O)C(CC(=O)Nc1cccc(C(F)(F)F)c1)C(=O)OC (configuration not stated)
inactive: [1] > 100 µM | [2] > 100 µM | [3] > 100 µM | [4] > 100 µM | [19] > 100 µM | [5] > 100 µM | [6] > 100 µM | [9] > 100 µM | [10] > 100 µM | [11] > 100 µM | [12] > 100 µM | [13] > 100 µM | [14] > 100 µM | [15] > 100 µM | [16] > 100 µM | [17] > 100 µM | [18] > 100 µM

COc1ccc2ccc([Se]c3ccc4ccc(OC)cc4c3)cc2c1
inactive: [1] > 100 µM | [2] > 100 µM | [3] > 100 µM | [4] 49.7 µM | [19] > 100 µM | [5] 70 µM | [6] > 100 µM | [9] > 100 µM | [10] 63.2 µM | [11] 26.6 µM | [12] > 100 µM | [13] 23.7 µM | [14] > 100 µM | [15] 23.3 µM | [16] > 100 µM | [17] 29.9 µM | [18] 58.1 µM

COc1ccccc1N/C(SCc1ccccc1)=C(/C(Cl)=C(Cl)Cl)[N+](=O)[O-]
inactive: [2] 15.1 µM | [3] 19.8 µM | [4] 30.5 µM | [6] 27 µM | [7] 26.7 µM | [8] 24.2 µM | [9] 16.1 µM | [10] 28.2 µM | [11] 31.8 µM | [13] 16.4 µM | [14] 17.8 µM | [15] 39.4 µM | [17] 21.1 µM | [18] 31.3 µM

CCN(CC)CC(C)C(=O)/C=C/c1ccc(C)cc1 (configuration not stated)
inactive: [1] 3.13 µM | [2] 1.85 µM | [3] 3.24 µM | [4] 1.88 µM | [19] 5.02 µM | [5] 2.19 µM | [6] 2.2 µM | [9] 6.31 µM | [10] 2.52 µM | [11] 1.66 µM | [12] 2.32 µM | [13] 13.5 µM | [14] 1.57 µM | [15] 16.7 µM | [16] 2.03 µM | [17] 1.76 µM | [18] 1.73 µM

CCSCN(C)c1nc(N(C)C)nc(N(C)C)n1
inactive: [1] > 100 µM | [2] 56.4 µM | [3] 46.8 µM | [4] 36.7 µM | [19] 39.9 µM | [5] 14.2 µM | [6] 39.8 µM | [9] 33.6 µM | [10] 46.8 µM | [11] 59 µM | [12] 49.2 µM | [13] 41.7 µM | [14] 35.9 µM | [15] 78 µM | [16] > 100 µM | [17] 54.2 µM | [18] 54.7 µM

CCN(CC)CCCC(C)Nc1ccnc2cc(Cl)ccc12 (configuration not stated) [CHLOROQUINE PHOSPHATE]
inactive: [1] 19.5 µM | [2] 20.6 µM | [3] 12.4 µM | [4] 11.7 µM | [19] 26.2 µM | [5] 2.4 µM | [6] 15 µM | [7] 7.94 µM | [8] 42.1 µM | [9] > 84.7 µM | [10] 15.2 µM | [11] > 60.5 µM | [12] 15.7 µM | [13] 14.9 µM | [14] > 57.4 µM | [15] > 76.4 µM | [16] 37.3 µM | [17] 21.2 µM | [18] 12 µM

CNc1cc([N+](=O)[O-])ccc1C(=O)N1CCC[C@H]1CO
inactive: [2] > 100 µM | [3] > 100 µM | [4] > 100 µM | [6] > 100 µM | [7] > 100 µM | [8] > 100 µM | [10] > 100 µM | [11] > 100 µM | [12] > 100 µM | [13] > 100 µM | [14] > 100 µM | [15] > 100 µM | [16] > 100 µM | [17] > 100 µM | [18] > 100 µM

CC(=O)NC(CCCN(Cc1ccccc1)C(=O)N(C)N=O)C(=O)NCc1ccccc1 (configuration not stated)
inactive: [1] > 100 µM | [2] > 100 µM | [3] > 100 µM | [4] > 100 µM | [19] > 100 µM | [5] > 100 µM | [6] > 100 µM | [9] > 100 µM | [10] 57.1 µM | [11] 27.4 µM | [12] > 100 µM | [13] > 100 µM | [14] > 100 µM | [15] > 100 µM | [16] > 100 µM | [17] > 100 µM | [18] > 100 µM

COc1ccc(-n2sc3ncc(-c4ccccc4)cc3c2=O)cc1
inactive: [1] 92.7 µM | [2] 37 µM | [4] 18.6 µM | [19] 55.2 µM | [5] 40.2 µM | [6] 80 µM | [7] 61.7 µM | [8] 72.9 µM | [9] 23.3 µM | [11] 34.5 µM | [12] 42.5 µM | [13] 21.7 µM | [14] 30.7 µM | [15] 29.4 µM | [16] 66.1 µM | [17] 27.6 µM | [18] 23.1 µM

CC1=CC(/C=C(\C)CCCc2ccoc2)C2(OC(=O)C(C)=C2O)[C@H]2C1CC[C@@H]2C (some centres not stated)
inactive: [1] 29.9 µM | [2] 27.6 µM | [3] 24.7 µM | [4] 14.6 µM | [19] 20.3 µM | [5] 18.3 µM | [6] 23.1 µM | [9] 20.5 µM | [10] 19.2 µM | [11] 33.7 µM | [12] 17.9 µM | [13] 16.5 µM | [14] 33.6 µM | [15] 11.9 µM | [16] 29.2 µM | [17] 25 µM | [18] 15.6 µM

CCc1cccc(C)c1NC(=O)CCc1nnc2s/c(=C\c3cccc4ccccc34)c(=O)n12
inactive: [1] > 100 µM | [2] > 100 µM | [3] 30.3 µM | [4] > 100 µM | [19] > 100 µM | [5] > 100 µM | [6] 45.6 µM | [9] > 100 µM | [10] 17.9 µM | [11] > 100 µM | [12] > 100 µM | [13] > 100 µM | [14] > 100 µM | [15] > 100 µM | [16] > 100 µM | [17] > 100 µM | [18] 57.1 µM
